Laboratory results: patent US10828269B2, “Reducing muscle atrophy by administering astaxanthin” (FUJI CHEMICAL INDUSTRIES CO., LTD., priority 2004, dated 2020)

Columns and labels:
Test in all cases: GENEchip mRNA expression in gastrocnemius
Assay type in all cases: in vivo, rat
[1] = tested on: RT1 class II, locus Ba; conditions: probe 1377334_at
[2] = tested on: Protein phosphatase 3, catalytic subunit gamma isoform; conditions: probe 1398469_at
Procedure: [The source words this procedure for another organism and reports this organism under the same test.] (§1) After the period of test breeding, kidney was removed and frozen at −80° C. Using an LM200 system (Olympus Corporation), the renal glomerulus was cut from kidney of mice while keeping low temperature. tRNA of renal glomerulus was extracted using tRNA extraction regent “Isogen” (produced by Nippon Gene Co., Ltd.), and then preparation of cRNA and hybridization were performed according to the Affymetrix GeneChip Eukaryotic Small Sample Target Labeling Assay Ver. II.
(§2) (1) Synthesis of first strand cDNA: 1 μL of total RNA solution and 1 of 5 μM T7-Oligo(dT) primer were mixed, heated at 70° C. for 6 minutes, and then cooled at 4° C. for 2 minutes. 3 μL of RT_Premix_1 (1.5 μL DEPC-treated water, 4 μL 5× First strand Buffer, 2 μL DTT (0.1 M), 1.5 μL dNTP Mix (10 mM), 1 μL RNase inhibitor (40 U/μL), and 2 μL Super-Script II (200 U/μL)) was added and reverse transcribed at 42° C. for 1 hour. The sample was heated at 70° C. for 10 minutes to inactivate Super Script II, and then cooled to 4° C. (2) Synthesis of second strand cDNA: 32.5 μl of SS_Premix_1 (91 μL DEPC-treated water, 30 μL 5× Second Strand Buffer, 3 μL dNTP (10 mM), 1 μL E. coli DNA ligase (10 U/μL); 4 μL E. coli DNA polymerase (10 U/μL), and 1 μL RNase H (2 U/μL)) was added to the first strand cDNA solution and allowed to react for 2 hours at 16° C. (3) To the resulting cDNA, was added 1 μL T4 DNA polymerase (5 U/μl) and allowed to react for 10 minutes at 16° C., and purified by ethanol precipitation. (4) In vitro transcription: To the dried double-stranded cDNA pellet, was added 10 μL of reagents (4 μL DEPC-treated water, 4 μL premixed NTPs, 1 μL 10× reaction buffer, and 1 μL 10× enzyme mix), and allowed to react at 37° C. in a water bath for 6 hours. (5) First cycle cRNA was purified using the RNeasy Mini Kit in accordance with the protocol in the handbook (QIAGEN). (6) Subsequently, for the amplification and labeling, the cRNA sample was mixed with random primers (0.2 μg/μL), treated at 70° C. for 10 minutes, cooled on ice for 2 minutes, 5 μL of RT_Premix_2 (5× First Strand Buffer, DTT (0.1 M), dNTP mix (10 mM), RNase inhibitor (40 U/μL), and SuperScript II (200 U/μL) was added, and allowed to react at 42° C. for 1 hour. (7) Next, Second Sstrand cDNA synthesis was carried out by adding 5 μM T7-Oligo(dT) promoter treating at 70° C. for 6 minutes, cooling at 4° C., and adding 62 μL of SS_Premix_2 (43 μL it DEPC-treated water, 15 μL 5× Second Strand Buffer, 1.5 μL dNTP mix (10 mM), and 2 μL E. coli DNA polymerase (10 U/μL)). (8) To the resulting cDNA, was treated added 1 μL of T4 DNA polymerase (5 U/μL), allowed to react at 16° C. for 10 minutes, and purified by ethanol precipitation. (9) To perform in vitro transcription and labeling with the ENZO BioArray High Yield RNA Transcript Labeling Kit, 40 μL of reagents (22 μL DEPC-treated solution, 4 μL 10×HY reaction buffer, 4 μL 10× biotin-labeled ribonucleotides, 4 μL 10×DTT, 4 μL 10× RNase to inhibition mix, and 2 μL 20× T7 RNA polymerase) were added, and allowed to react at 37° C. for 4 hours. (10) Labeled cRNA target was purified with RNeasy columns. (11) The fragmentation and hybridization were performed according to “GeneChip Expression Analysis Technical Manual”.
(§3) The prepared labeled cRNA was hybridized to a GeneChip “mouse Expression Set 430A, representing a total of 22,690 mouse transcripts” (Affymetrix). For data analysis, the GeneChip Analysis Suite Ver. 5.1 (Affymetrix) was used. All microarrays were scaled to a target intensity of 1000 and were compared with background, noise, and overall staining intensity. Differentially expressed transcripts were identified by algorithms of the software y Affymetrix.
(§4) 9-week-old Wistar male rats were bred each being fed a normal diet for breeding and water ad libitum under the conditions with a 12 hours light-dark cycle at a temperature of 21° C. to 25° C. and were accustomed to the environment in advance. […]

[3] = tested on: ATP-binding cassette, sub-family B (MDR/TAP), member; conditions: probe 1369161_at
Procedure: as §1, §2, §3, §4

[4] = tested on: neuronatin; conditions: probe 1369999_a_at
Procedure: [The source words this procedure for another organism and reports this organism under the same test.] as §1, §2, §3, §4

[5] = tested on: murine thymoma viral (v-akt) oncogene homolog 2; conditions: probe 1387353_at
Procedure: as §1, §2, §3, §4

[6] = tested on: transforming growth factor, beta 2; conditions: probe 1387172_a_at
Procedure: as §1, §2, §3, §4

[7] = tested on: very low density lipoprotein receptor; conditions: probe 1369098_at
Procedure: as §1, §2, §3, §4

[8] = denervated left leg gastrocnemius, astaxanthin group vs control group
[9] = denervated left leg gastrocnemius, astaxanthin-administered group
[10] = right leg (control) gastrocnemius, astaxanthin group vs control group
[11] = right leg (control) gastrocnemius, astaxanthin-administered group

With `CC1=C(/C=C/C(C)=C/C=C/C(C)=C/C=C/C=C(C)/C=C/C=C(C)/C=C/C2=C(C)C(=O)C(O)CC2(C)C)C(C)(C)CC(O)C1=O` (stereo not drawn) [astaxanthin, 3,3′-dihydroxy-β,β-carotene-4,4′-dione] the “gene expression intensity ratio ad/nd” value [1, 8] was 0.51, the luminescence intensity ad [1, 9] was 312 and the “gene expression intensity ratio ac/nc” value [1, 10] was 1.60. The luminescence intensity ac [1, 11] was 220.5, the “gene expression intensity ratio ad/nd” value [2, 8] was 1.90 and the luminescence intensity ad [2, 9] was 333.1. The “gene expression intensity ratio ac/nc” value [2, 10] was 1.09, the luminescence intensity ac [2, 11] was 523.6 and the “gene expression intensity ratio ad/nd” value [3, 8] was 1.41. The luminescence intensity ad [3, 9] was 306.9, the “gene expression intensity ratio ac/nc” value [3, 10] was 1.34 and the luminescence intensity ac [3, 11] was 677.1. For the same compound, the “gene expression intensity ratio ad/nd” value [4, 8] was 0.61, the luminescence intensity ad [4, 9] was 640.7 and the “gene expression intensity ratio ac/nc” value [4, 10] was 0.79. For the same compound, the luminescence intensity ac [4, 11] was 106.4, the “gene expression intensity ratio ad/nd” value [5, 8] was 0.67 and the luminescence intensity ad [5, 9] was 1042.6. The “gene expression intensity ratio ac/nc” value [5, 10] was 0.83, the luminescence intensity ac [5, 11] was 715.4 and the “gene expression intensity ratio ad/nd” value [6, 8] was 0.57. For the same compound, the luminescence intensity ad [6, 9] was 677.8, the “gene expression intensity ratio ac/nc” value [6, 10] was 1.06 and the luminescence intensity ac [6, 11] was 479.9. For the same compound, the “gene expression intensity ratio ad/nd” value [7, 8] was 1.49, the luminescence intensity ad [7, 9] was 318 and the “gene expression intensity ratio ac/nc” value [7, 10] was 1.00. For the same compound, the luminescence intensity ac [7, 11] was 500.5.
